Assay results reported in article PMC9078821, “The synthesis of axially disubstituted silicon phthalocyanines, their quaternized derivatives and first inhibitory effect on human cytosolic carbonic anhydrase isozymes hCA I and II” (RSC Advances, 2018).

Legend:
hCA I = target: T1, hCA I (Homo sapiens, UniProt P00915); assay: Esterase activity assay with 4-nitrophenylacetate as substrate, hCA I; format: biochemical; conditions: for IC50: 4-nitrophenylacetate substrate, pH 7.4, 25 °C, enzyme purified from human erythrocytes, errors 2–5%, three assays; for hCA I inhibition, result in words: ranking within the series
T1 construct: from tissue; host or cells: human erythrocytes (fresh human blood)
Experimental: (§1) Erythrocytes were purified from fresh human blood obtained from the Blood Centre of the Research Hospital at Atatürk University. The blood samples were centrifuged at 1500 rpm for 15 min and the plasma and buffy coat were removed. The red cells were isolated and washed twice with 0.9% NaCl, and hemolyzed with 1.5 volumes of ice-cold water. The ghost and intact cells were removed by centrifugation at 20 000 rpm for 30 min at 4 °C. The pH of the hemolysate was adjusted to 8.7 with solid Tris.[27] […] The affinity gel was washed with 25 mM Tris–HCl/22 mM Na2SO4 (pH 8.7). The human carbonic anhydrase (hCA I and hCA II) isozymes were eluted with 1 M NaCl/25 mM Na2HPO4 (pH 6.3) and 0.1 M CH3COONa/0.5 M NaClO4 (pH 5.6), respectively. All procedures were performed at 4 °C.[27]
(§2) Carbonic anhydrase activity was assayed by following the change in absorbance at 348 nm of 4-nitrophenylacetate (NPA) to 4-nitrophenylate ion over a period of 3 min at 25 °C using a spectrophotometer (Shimadzu UV-1800) according to the method described by Verpoorte et al.[28] The enzymatic reaction, in a total volume of 3.0 mL, contained 1.4 mL 0.05 M Tris–SO4 buffer (pH 7.4), 1 mL 3 mM 4-nitrophenylacetate, 0.5 mL H2O and 0.1 mL enzyme solution. A reference measurement was obtained by preparing the same cuvette without enzyme solution. The inhibitory effects of compounds were examined. All compounds were tested in triplicate at each concentration used. Different inhibitor concentrations were used. Control cuvette activity in the absence of inhibitor was taken as 100%. For each inhibitor an activity (%)–[inhibitor] graphs were drawn.[29]

hCA II = target: T2, hCA II (Homo sapiens, UniProt P00918); assay: Esterase activity assay with 4-nitrophenylacetate as substrate, hCA II; format: biochemical; conditions: 4-nitrophenylacetate substrate, pH 7.4, 25 °C, enzyme purified from human erythrocytes, errors 2–5%, three assays
T2 construct: from tissue; host or cells: human erythrocytes (fresh human blood)
Experimental: as §1, §2

T1 sequence (P00915 whole entry): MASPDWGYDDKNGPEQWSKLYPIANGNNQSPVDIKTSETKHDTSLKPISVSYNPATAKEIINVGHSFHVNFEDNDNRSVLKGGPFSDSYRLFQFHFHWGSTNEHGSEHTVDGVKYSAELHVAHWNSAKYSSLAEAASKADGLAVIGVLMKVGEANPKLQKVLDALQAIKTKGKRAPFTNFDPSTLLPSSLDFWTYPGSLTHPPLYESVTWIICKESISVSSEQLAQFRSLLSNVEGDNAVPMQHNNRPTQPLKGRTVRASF

Row | SMILES | IC50 (hCA I) | IC50 (hCA II) | hCA I inhibition, result in words (hCA I)
1 | C[N+]1(CCOc2cc(CO[Si]3(OCc4cc(OCC[N+]5(C)CCOCC5)cc(OCC[N+]5(C)CCOCC5)c4)n4c5c6ccccc6c4N=C4N=C(N=c6c7ccccc7c(n63)=NC3=NC(=N5)c5ccccc53)c3ccccc34)cc(OCC[N+]3(C)CCOCC3)c2)CCOCC1 [ZM-1-SiQ] | 0.071 µM | 0.0544 µM | 
2 | c1ccc2c(c1)C1=NC2=Nc2c3ccccc3c3n2[Si](OCc2cc(OCCN4CCOCC4)cc(OCCN4CCOCC4)c2)(OCc2cc(OCCN4CCOCC4)cc(OCCN4CCOCC4)c2)n2c(c4ccccc4c2=NC2=NC(=N3)c3ccccc32)=N1 [ZM-1-Si] | 0.165 µM | 0.121 µM | moderately inhibited
3 | CC[N+](C)(CC)c1cccc(OCCOCCO[Si]2(OCCOCCOc3cccc([N+](C)(CC)CC)c3)n3c4c5ccccc5c3N=C3N=C(N=c5c6ccccc6c(n52)=NC2=NC(=N4)c4ccccc42)c2ccccc23)c1 [ZM-5-SiQ] | 0.0243 µM | 0.0363 µM | 
4 | CCN(CC)c1cccc(OCCOCCO[Si]2(OCCOCCOc3cccc(N(CC)CC)c3)n3c4c5ccccc5c3N=C3N=C(N=c5c6ccccc6c(n52)=NC2=NC(=N4)c4ccccc42)c2ccccc23)c1 [ZM-5-Si] | 0.084 µM | 0.0762 µM | 
5 | CN(C)c1ccc(/C=C/C(=O)c2ccc(O[Si]3(Oc4ccc(C(=O)/C=C/c5ccc(N(C)C)cc5)cc4)n4c5c6ccccc6c4N=C4N=C(N=c6c7ccccc7c(n63)=NC3=NC(=N5)c5ccccc53)c3ccccc34)cc2)cc1 [ZT-Si, Bis[(2E)-3-[4-(dimethylamino)phenyl]-1-(4-phenoxy)prop-2-en-1-one]phthalocyaninato silicon(IV)] | 0.0178 µM | 0.0172 µM | among the best inhibitors
